Experimental findings from publication PMC5218480 (PLoS ONE, 2017) are described below.

The assay concerns MV-4-11 cells. Description: Gene expression microarray analysis (Affymetrix PrimeView) and GSEA. The class given is cell-based, human. Details: RFU PODN (11730768_x_at) / Fold change /veh PODN (11730768_x_at) / RFU LINC00158 (11744669_a_at) / Fold change /veh LINC00158 (11744669_a_at) / RFU DUSP10 (11751237_a_at) / Fold change /veh DUSP10 (11751237_a_at) / RFU ID3 (11757404_x_at) / Fold change /veh ID3 (11757404_x_at) / RFU PLEKHG5 (11737974_s_at) / Fold change /veh PLEKHG5 (11737974_s_at) / RFU LRRC4B (11730491_at) / Fold change /veh LRRC4B (11730491_at) / RFU GIMAP4 (11747438_a_at) / Fold change /veh GIMAP4 (11747438_a_at) / RFU KRT8 (11758183_x_at) / Fold change /veh KRT8 (11758183_x_at) / RFU CNN1 (11734310_a_at) / Fold change /veh CNN1 (11734310_a_at) / RFU VPS37D (11726825_at) / Fold change /veh VPS37D (11726825_at) / RFU C10orf10 (11716522_x_at) / Fold change /veh C10orf10 (11716522_x_at) / RFU KIR2DL2 /// KIR2DL4 /// KIR2DL5A /// KIR2DL5B /// KIR2DS1 /// KIR2DS2 /// KIR2DS3 /// KIR2DS4 /// KIR3DL3 /// KIR3DL3 /// KIR3DS1 (11738374_at) / Fold change /veh KIR2DL2 /// KIR2DL4 /// KIR2DL5A /// KIR2DL5B /// KIR2DS1 /// KIR2DS2 /// KIR2DS3 /// KIR2DS4 /// KIR3DL3 /// KIR3DL3 /// KIR3DS1 (11738374_at) / RFU C1QL1 (11718748_at) / Fold change /veh C1QL1 (11718748_at) / RFU TMPRSS4 (11747572_a_at) / Fold change /veh TMPRSS4 (11747572_a_at) / RFU HAMP (11756126_x_at) / Fold change /veh HAMP (11756126_x_at) / RFU RNFT2 (11725882_a_at) / Fold change /veh RNFT2 (11725882_a_at) / RFU NR4A2 (11747474_a_at) / Fold change /veh NR4A2 (11747474_a_at) / RFU ABCC12 (11746883_a_at) / Fold change /veh ABCC12 (11746883_a_at) / RFU TMEM136 (11760407_x_at) / Fold change /veh TMEM136 (11760407_x_at) / RFU CLDN22 /// WWC2 (11732394_at) / Fold change /veh CLDN22 /// WWC2 (11732394_at) / RFU HLA-DPB1 (11760878_x_at) / Fold change /veh HLA-DPB1 (11760878_x_at) / RFU SPINT1 (11716480_a_at) / Fold change /veh SPINT1 (11716480_a_at) / RFU GAP43 (11754022_s_at) / Fold change /veh GAP43 (11754022_s_at) / RFU A4GNT (11735810_at) / Fold change /veh A4GNT (11735810_at) / RFU PRB3 (11715151_x_at) / Fold change /veh PRB3 (11715151_x_at) / RFU TUBB4B (11761932_at) / Fold change /veh TUBB4B (11761932_at) / RFU CAPN14 (11732068_a_at) / Fold change /veh CAPN14 (11732068_a_at) / RFU TMCC2 (11721928_a_at) / Fold change /veh TMCC2 (11721928_a_at) / RFU IRGQ (11745062_a_at) / Fold change /veh IRGQ (11745062_a_at) / RFU FAM174B (11720279_a_at) / Fold change /veh FAM174B (11720279_a_at) / RFU TMPRSS4 (11748680_a_at) / Fold change /veh TMPRSS4 (11748680_a_at) / RFU FAM212B (11763350_a_at) / Fold change /veh FAM212B (11763350_a_at) / RFU PLEKHG5 (11743358_a_at) / Fold change /veh PLEKHG5 (11743358_a_at) / RFU ZSCAN30 (11745921_a_at) / Fold change /veh ZSCAN30 (11745921_a_at) / RFU CMKLR1 (11741424_a_at) / Fold change /veh CMKLR1 (11741424_a_at) / RFU LOC101060620 /// MAPK8IP1 (11723275_at) / Fold change /veh LOC101060620 /// MAPK8IP1 (11723275_at) / RFU SPTSSB (11747773_x_at) / Fold change /veh SPTSSB (11747773_x_at) / RFU PRSS12 (11739890_at) / Fold change /veh PRSS12 (11739890_at) / RFU BIN1 (11741810_x_at) / Fold change /veh BIN1 (11741810_x_at) / RFU WNT11 (11732464_a_at) / Fold change /veh WNT11 (11732464_a_at) / RFU C10orf10 (11716521_a_at) / Fold change /veh C10orf10 (11716521_a_at) / RFU C5orf56 (11738089_at) / Fold change /veh C5orf56 (11738089_at) / RFU CYB561 (11721691_x_at) / Fold change /veh CYB561 (11721691_x_at) / RFU ANKRD19P (11752326_a_at) / Fold change /veh ANKRD19P (11752326_a_at) / RFU OR2T12 /// OR2T33 /// OR2T8 (11738714_s_at) / Fold change /veh OR2T12 /// OR2T33 /// OR2T8 (11738714_s_at) / RFU VCAN (11748164_a_at) / Fold change /veh VCAN (11748164_a_at) / RFU JSRP1 (11732532_at) / Fold change /veh JSRP1 (11732532_at) / RFU KRTAP10-11 (11738290_x_at) / Fold change /veh KRTAP10-11 (11738290_x_at) / RFU MYO3A (11730013_a_at) / Fold change /veh MYO3A (11730013_a_at) / RFU EBF3 (11725865_a_at) / Fold change /veh EBF3 (11725865_a_at) / RFU CAMK2N1 (11719241_x_at) / Fold change /veh CAMK2N1 (11719241_x_at) / RFU C5orf56 (11738088_a_at) / Fold change /veh C5orf56 (11738088_a_at) / RFU OLFML3 (11715873_a_at) / Fold change /veh OLFML3 (11715873_a_at) / RFU LOC100653217 /// NTM (11731650_a_at) / Fold change /veh LOC100653217 /// NTM (11731650_a_at) / RFU MAPK11 (11762145_a_at) / Fold change /veh MAPK11 (11762145_a_at) / RFU FIZ1 (11724087_x_at) / Fold change /veh FIZ1 (11724087_x_at) / RFU OASL (11726364_x_at) / Fold change /veh OASL (11726364_x_at) / RFU SOX15 (11748057_x_at) / Fold change /veh SOX15 (11748057_x_at) / RFU CD79A (11719716_a_at) / Fold change /veh CD79A (11719716_a_at) / RFU HIST1H1D (11736915_at) / Fold change /veh HIST1H1D (11736915_at) / RFU CASKIN2 (11723855_a_at) / Fold change /veh CASKIN2 (11723855_a_at) / RFU LOC730098 (11760151_x_at) / Fold change /veh LOC730098 (11760151_x_at) / RFU OR4N2 (11742367_at) / Fold change /veh OR4N2 (11742367_at) / RFU PRRT2 (11749266_a_at) / Fold change /veh PRRT2 (11749266_a_at) / RFU SNX32 (11753110_a_at) / Fold change /veh SNX32 (11753110_a_at) / RFU CDHR5 (11726645_a_at) / Fold change /veh CDHR5 (11726645_a_at) / RFU RCAN1 (11760418_a_at) / Fold change /veh RCAN1 (11760418_a_at) / RFU FAM167A (11723789_a_at) / Fold change /veh FAM167A (11723789_a_at) / RFU FAM26E (11764081_at) / Fold change /veh FAM26E (11764081_at) / RFU ISYNA1 (11749810_s_at) / Fold change /veh ISYNA1 (11749810_s_at) / RFU ACY1 (11761880_at) / Fold change /veh ACY1 (11761880_at) / RFU 11764098_at / Fold change /veh 11764098_at / RFU SAMD14 (11745864_x_at) / Fold change /veh SAMD14 (11745864_x_at) / RFU NPB (11741838_a_at) / Fold change /veh NPB (11741838_a_at) / RFU TMPRSS6 (11731388_a_at) / Fold change /veh TMPRSS6 (11731388_a_at) / RFU KRTAP10-2 (11738614_at) / Fold change /veh KRTAP10-2 (11738614_at) / RFU ARHGAP8 /// PRR5-ARHGAP8 (11727945_x_at) / Fold change /veh ARHGAP8 /// PRR5-ARHGAP8 (11727945_x_at) / RFU KRTAP5-7 /// NADSYN1 (11734609_at) / Fold change /veh KRTAP5-7 /// NADSYN1 (11734609_at) / RFU RASL12 (11751679_a_at) / Fold change /veh RASL12 (11751679_a_at) / RFU CDKN2B (11736163_a_at) / Fold change /veh CDKN2B (11736163_a_at) / RFU PRF1 (11729649_at) / Fold change /veh PRF1 (11729649_at) / RFU, ZNF638 /// ZNF638-IT1 / Fold change vs veh, ZNF638 /// ZNF638-IT1 / RFU, PANK3 / Fold change vs veh, PANK3 / RFU, SH3YL1 / Fold change vs veh, SH3YL1 / RFU, ZEB2 / Fold change vs veh, ZEB2 / RFU, NRIP1 / Fold change vs veh, NRIP1 / RFU, PTTG1IP / Fold change vs veh, PTTG1IP / RFU, CAPN2 / Fold change vs veh, CAPN2 / RFU, MED14 / Fold change vs veh, MED14 / RFU, SNORA58 / Fold change vs veh, SNORA58 / RFU, C1orf63 / Fold change vs veh, C1orf63 / RFU, LRRFIP1 / Fold change vs veh, LRRFIP1 / RFU, NDUFAF7 / Fold change vs veh, NDUFAF7 / RFU, SLC12A2 / Fold change vs veh, SLC12A2 / RFU, IBTK / Fold change vs veh, IBTK / RFU, ESF1 / Fold change vs veh, ESF1 / Fold change vs veh, TMEM50B / RFU, TAOK1 / Fold change vs veh, TAOK1 / RFU, ACBD3 / Fold change vs veh, ACBD3 / RFU, TMA16 / Fold change vs veh, TMA16 / RFU, RWDD3 / Fold change vs veh, RWDD3 / RFU, BCAT1 / Fold change vs veh, BCAT1 / RFU, EDEM3 / Fold change vs veh, EDEM3 / RFU, TMEM33 / Fold change vs veh, TMEM33 / RFU, WDR75 / Fold change vs veh, WDR75 / RFU, AHCTF1 / Fold change vs veh, AHCTF1 / RFU, TFRC / Fold change vs veh, TFRC / RFU, ZDHHC17 / Fold change vs veh, ZDHHC17 / RFU, NOM1 / Fold change vs veh, NOM1 / RFU, ARL8B / Fold change vs veh, ARL8B / RFU, ZBTB11 / Fold change vs veh, ZBTB11 / RFU, TAMM41 / Fold change vs veh, TAMM41 / RFU, KIAA1704 /// LOC100996395 / Fold change vs veh, KIAA1704 /// LOC100996395 / RFU, ING1 / Fold change vs veh, ING1 / RFU, TRMT61B / Fold change vs veh, TRMT61B / RFU, FUBP3 / Fold change vs veh, FUBP3 / RFU, TP53 / Fold change vs veh, TP53 / RFU, TNKS2 / Fold change vs veh, TNKS2 / RFU, ZFP14 / Fold change vs veh, ZFP14 / RFU, ACTR2 / Fold change vs veh, ACTR2 / RFU, PPP3R1 / Fold change vs veh, PPP3R1 / RFU, PIK3R1 / Fold change vs veh, PIK3R1 / RFU, HNRNPA1 / Fold change vs veh, HNRNPA1 / RFU, RNF170 / Fold change vs veh, RNF170 / RFU, ZNF28 / Fold change vs veh, ZNF28 / RFU, RNGTT / Fold change vs veh, RNGTT / RFU, OGT / Fold change vs veh, OGT / RFU, BRD1 / Fold change vs veh, BRD1 / RFU, MARS / Fold change vs veh, MARS / RFU, ZNF655 / Fold change vs veh, ZNF655 / RFU, FAHD1 / Fold change vs veh, FAHD1 / RFU, BDP1 / Fold change vs veh, BDP1 / RFU, LRRCC1 / Fold change vs veh, LRRCC1 / RFU, ARID1A / Fold change vs veh, ARID1A / RFU, ZNF146 / Fold change vs veh, ZNF146 / RFU, ZNF330 / Fold change vs veh, ZNF330 / RFU, GPN3 / Fold change vs veh, GPN3 / RFU, C9orf123 / Fold change vs veh, C9orf123 / RFU, N4BP2L2 / Fold change vs veh, N4BP2L2 / RFU, ARFIP1 / Fold change vs veh, ARFIP1 / RFU, FAM179B / Fold change vs veh, FAM179B / RFU, BCL10 / Fold change vs veh, BCL10 / RFU, UHRF1BP1L / Fold change vs veh, UHRF1BP1L / RFU, BET1 / Fold change vs veh, BET1 / RFU, CNOT2 / Fold change vs veh, CNOT2 / RFU, ZNF268 / Fold change vs veh, ZNF268 / Fold change vs veh, ZNF507 / RFU, DGCR2 / Fold change vs veh, DGCR2 / RFU, WDSUB1 / Fold change vs veh, WDSUB1 / Fold change vs veh, HSP90B1 /// MIR3652 / RFU, ADSS / Fold change vs veh, ADSS / RFU, GK / Fold change vs veh, GK / RFU, ZNF148 / Fold change vs veh, ZNF148 / RFU, TAF9 / Fold change vs veh, TAF9 / RFU, SLC1A5 / Fold change vs veh, SLC1A5 / RFU, SLMO2 / Fold change vs veh, SLMO2 / RFU, ABCC4 / Fold change vs veh, ABCC4 / RFU, LOC101060439 /// RAP1B / Fold change vs veh, LOC101060439 /// RAP1B / RFU, RFX7 / Fold change vs veh, RFX7 / RFU, GTPBP10 / Fold change vs veh, GTPBP10 / RFU, CNEP1R1 / Fold change vs veh, CNEP1R1 / RFU, BIVM-ERCC5 /// ERCC5 / Fold change vs veh, BIVM-ERCC5 /// ERCC5 / RFU, ILF3 / Fold change vs veh, ILF3 / RFU 11762660_at / Fold change /veh 11762660_at / RFU VCAN (11757783_s_at) / Fold change /veh VCAN (11757783_s_at) / RFU DDX43 (11728927_at) / Fold change /veh DDX43 (11728927_at) / RFU KRT8 (11758188_x_at) / Fold change /veh KRT8 (11758188_x_at) / RFU NKD1 (11759106_at) / Fold change /veh NKD1 (11759106_at) / RFU SRD5A1 (11742802_a_at) / Fold change /veh SRD5A1 (11742802_a_at) / RFU TPSAB1 /// TPSB2 (11721975_s_at) / Fold change /veh TPSAB1 /// TPSB2 (11721975_s_at) / RFU GSTM3 (11746129_a_at) / Fold change /veh GSTM3 (11746129_a_at) / RFU IL23R (11737362_x_at) / Fold change /veh IL23R (11737362_x_at) / RFU TMEM51 (11727254_a_at) / Fold change /veh TMEM51 (11727254_a_at) / RFU PIWIL2 (11732686_x_at) / Fold change /veh PIWIL2 (11732686_x_at) / RFU ORM1 (11744905_x_at) / Fold change /veh ORM1 (11744905_x_at) / RFU CCDC152 (11743942_at) / Fold change /veh CCDC152 (11743942_at) / RFU ECM1 (11717891_a_at) / Fold change /veh ECM1 (11717891_a_at) / RFU IL23R (11748794_a_at) / Fold change /veh IL23R (11748794_a_at) / RFU TNFAIP8L3 (11732012_x_at) / Fold change /veh TNFAIP8L3 (11732012_x_at) / RFU MBOAT4 (11741988_at) / Fold change /veh MBOAT4 (11741988_at) / RFU 11764193_at / Fold change /veh 11764193_at / RFU TMEM53 (11763286_at) / Fold change /veh TMEM53 (11763286_at) / RFU MAGEB2 (11727129_at) / Fold change /veh MAGEB2 (11727129_at) / RFU TMEM200A (11744735_a_at) / Fold change /veh TMEM200A (11744735_a_at) / RFU CCDC152 (11751479_a_at) / Fold change /veh CCDC152 (11751479_a_at) / RFU FAM211A (11726209_a_at) / Fold change /veh FAM211A (11726209_a_at) / RFU RGS16 (11746705_a_at) / Fold change /veh RGS16 (11746705_a_at) / RFU VCAN (11755009_s_at) / Fold change /veh VCAN (11755009_s_at) / RFU RHOB (11743442_s_at) / Fold change /veh RHOB (11743442_s_at) / RFU RGS16 (11720943_a_at) / Fold change /veh RGS16 (11720943_a_at) / RFU RGS16 (11720944_at) / Fold change /veh RGS16 (11720944_at) / RFU, VPS4B / Fold change vs veh, VPS4B / RFU, CREB1 / Fold change vs veh, CREB1 / RFU, DNAJC13 / Fold change vs veh, DNAJC13 / RFU, GNAQ / Fold change vs veh, GNAQ / RFU, CDK5R1 / Fold change vs veh, CDK5R1 / RFU, ZRANB3 / Fold change vs veh, ZRANB3 / RFU, CUL4A / Fold change vs veh, CUL4A / RFU, CCNY / Fold change vs veh, CCNY / RFU, UFL1 / Fold change vs veh, UFL1 / RFU, COG3 / Fold change vs veh, COG3 / RFU, DIAPH2 / Fold change vs veh, DIAPH2 / RFU, SKA2 / Fold change vs veh, SKA2 / RFU, AFF3 / Fold change vs veh, AFF3 / RFU, LMF1 / Fold change vs veh, LMF1 / RFU, IPO11 / Fold change vs veh, IPO11 / RFU, DFFB / Fold change vs veh, DFFB / RFU, FOXP1 / Fold change vs veh, FOXP1 / RFU, CARD8 / Fold change vs veh, CARD8 / RFU, STRN3 / Fold change vs veh, STRN3 / RFU, ADK / Fold change vs veh, ADK / RFU, RASSF2 / Fold change vs veh, RASSF2 / RFU, WIPF1 / Fold change vs veh, WIPF1 / RFU, LARP1B / Fold change vs veh, LARP1B / RFU, RASA1 / Fold change vs veh, RASA1 / RFU, RB1 / Fold change vs veh, RB1 / RFU, PPFIA1 / Fold change vs veh, PPFIA1 / RFU, MAT2A / Fold change vs veh, MAT2A / RFU, CCT5 / Fold change vs veh, CCT5 / RFU, WDR92 / Fold change vs veh, WDR92 / RFU, CUX1 / Fold change vs veh, CUX1 / RFU, TTC7A / Fold change vs veh, TTC7A / RFU, TMEM135 / Fold change vs veh, TMEM135 / RFU, DEPTOR / Fold change vs veh, DEPTOR / RFU, CPM / Fold change vs veh, CPM / RFU, DNAJB6 / Fold change vs veh, DNAJB6 / RFU, CACNA2D3 / Fold change vs veh, CACNA2D3 / RFU, DTX4 / Fold change vs veh, DTX4 / RFU, TFCP2 / Fold change vs veh, TFCP2 / RFU, GMCL1 /// GMCL1P1 / Fold change vs veh, GMCL1 /// GMCL1P1 / RFU, AEBP2 / Fold change vs veh, AEBP2 / RFU, SNHG1 /// SNORD22 /// SNORD25 /// SNORD26 /// SNORD27 /// SNORD28 /// SNORD29 /// SNORD31 / Fold change vs veh, SNHG1 /// SNORD22 /// SNORD25 /// SNORD26 /// SNORD27 /// SNORD28 /// SNORD29 /// SNORD31 / Fold change (Aza/veh), C12orf56 (ProbeSet 11735607_a_at) / Fold change (ACY-1035/veh), C12orf56 (ProbeSet 11735607_a_at) / Fold change (Aza/veh), FGFR1OP (ProbeSet 11751329_s_at) / Fold change (ACY-1035/veh), FGFR1OP (ProbeSet 11751329_s_at) / Fold change (Aza/veh), VPS36 (ProbeSet 11739960_a_at) / Fold change (ACY-1035/veh), VPS36 (ProbeSet 11739960_a_at) / RFU SYPL1 (11715823_x_at) / Fold change /veh SYPL1 (11715823_x_at) / RFU IGFBP7 (11715501_s_at) / Fold change /veh IGFBP7 (11715501_s_at) / RFU REEP3 (11722064_at) / Fold change /veh REEP3 (11722064_at) / RFU IGLL1 (11728026_x_at) / Fold change /veh IGLL1 (11728026_x_at): dose or concentration left out as unconfirmed. Particulars: ProbeSet 11720566_at; LIST D.

In the case of `Nc1ncn([C@@H]2O[C@H](CO)[C@@H](O)[C@H]2O)c(=O)n1` [azacitidine], the “RFU, BCAT1” value is given as 650.05 RFU.
